From patent US9371324B2, “Substituted pyrido[3′,4′:4,5]pyrrolo[1,2,3-de]quinoxalines for the treatment of nervous system disorders” (INTRA-CELLULAR THERAPIES, INC., priority 2010, dated 2016) come the findings set out here.

Read-outs that look alike come from different tables or passages of the source.

A short description of data set [1]: Single dose oral bioavailability and pharmacokinetic study in Sprague Dawley rats. The class given is in vivo, Sprague Dawley rat. The note with it: for AUC(0-t) / Cmax / Tmax / half-life: Sprague Dawley (Crl:CD(SD)BR), rat, plasma, mean, after single oral 30 mg/kg of Example 1, label = analyte; for half-life: read-out: t½ (converted); for Course of plasma concentration over time: rats, after oral Example 1, 30 mg/kg, over 8 hours. How it is done: Animals are Used for the Study:
• Strain/Species: Sprague Dawley (Crl:CD®(SD)BR) Rat • Sex: Male and Female • Age at Receipt: 7-8 weeks • Weight Range: 225-300 g • Number of Animals on Study: 3 Males and 3 Females Preparation of Dosage Formulation
The suspension is prepared by placing the required amount of methylcellulose in deionized water in a glass container. The suspension are kept stirring with a magnetic stirrer until completion of daily dosing. The dose suspensions are prepared on the day of dosing for each test article group.
A total of 3 male and 3 female rats are dosed at 30 mg/kg. Blood samples are collected at 0.30 min, 1, 4 and 8 h after dosing. Plasma samples are analyzed to determine plasma concentrations of the Compound of Example 1, the Compound of Formula Q wherein X is —N(CH3)— and Y is —C(═O), and the Compound of Formula Q wherein X is —N(H)— and Y is —C(═O). The pharmacokinetic profile is determined using WinNonlin.
Animals are anesthetized with isoflurane, and whole blood (˜0.5 mL/time point) is collected from the orbital sinus utilizing a glass capillary tube on the first day of treatment at the following times: 0.30 min, 1, 4 and 8 h after dosing. Whole blood (˜0.5 mL) is collected into chilled plastic tubes containing sodium heparin as supplied by the manufacturer. The blood collection tubes are mixed several times by manual inversion or gentle vortexing and stored on wet ice until centrifugation. The blood is centrifuged (˜2700 g, ˜10 min, ˜5° C.). Plasma is transferred with disposable plastic pipettes to plastic vials and stored at approximately −70° C. until analyzed.

Another data set has as its target SERT (Homo sapiens, UniProt P31645). As to the kind of experiment: biochemical.
A further data set deals with dopamine receptors. As to the kind of experiment: Step-down latency test. The class given is in vivo. The note with it: mice; oral; tests at 120, 180, 240 and 360 minutes; FIG. 2. Here is the method:
Drugs that antagonize dopamine receptors in the brain slow motor behavior and can induce a cataleptic state. This activity can be assessed in mice using a simple step down latency test. In this test, mice are held by the tail, and the rodents forepaws are placed on a rod and its hindpaws placed on the bench top. The time for forepaws to step down from the rod is then measured. A maximum of 2 min is allowed at which time the animal is taken away from the rod and returned to the home cage. The compound of Example 1 or haloperidol (used as a positive control) is administered orally 120 minutes before the first test. Step down latency tests are conducted at 120, 180, 240, and 360 minutes after the administration of the compound of Example 1 or haloperidol. After each test mice are returned to their cages. The results are show in FIG. 2.

Data set [2] concerns the target T1, serotonin reuptake transport (SERT) (Homo sapiens, UniProt P31645).
T1 construct: endogenous in cells; host or cells: human platelets
As to the kind of experiment: Inhibition of serotonin uptake in a human platelet assay using tritiated serotonin. The class given is cell-based.

The nature of data set [3]: Hydrolysis of Example 4 in EDTA-containing rat whole blood. The class given is in vitro ADME. The note with it: for Concentration: Example 4 incubated in rat whole blood at 37 degrees, HPLC-MS.
A further data set relates to 5-HT2 receptor. As to the kind of experiment: DOI-induced head twitch test in mice. The note with it: oral. The class given is in vivo. An excerpt:
When administered to mice, it produces a behavioral profile associated with frequent head twitches. The frequency of these head twitches during a predetermined period of time can be taken as an estimate of 5-HT2 receptor agonism in the brain. Conversely, this behavioral assay can be used to determine 5-HT2 receptor antagonism in the brain by administering the DOI with or without an antagonist and recording the reduction in DOI-induced head twitches after the administration of the antagonist.
The method of Darmani et al., Pharmacol Biochem Behav. (1990) 36:901-906 (the contents of which are incorporated by reference in their entirety) is used with some modifications. (±)-DOI HCl is injected subcutaneously and the mice are immediately placed in a conventional plastic cage. The number of head twitches is counted during 6 min, beginning 1 min after DOI administration. The compound of Example 1 is administered orally 0.5 hr before the injection of DOI.

T1 sequence (P31645 whole entry): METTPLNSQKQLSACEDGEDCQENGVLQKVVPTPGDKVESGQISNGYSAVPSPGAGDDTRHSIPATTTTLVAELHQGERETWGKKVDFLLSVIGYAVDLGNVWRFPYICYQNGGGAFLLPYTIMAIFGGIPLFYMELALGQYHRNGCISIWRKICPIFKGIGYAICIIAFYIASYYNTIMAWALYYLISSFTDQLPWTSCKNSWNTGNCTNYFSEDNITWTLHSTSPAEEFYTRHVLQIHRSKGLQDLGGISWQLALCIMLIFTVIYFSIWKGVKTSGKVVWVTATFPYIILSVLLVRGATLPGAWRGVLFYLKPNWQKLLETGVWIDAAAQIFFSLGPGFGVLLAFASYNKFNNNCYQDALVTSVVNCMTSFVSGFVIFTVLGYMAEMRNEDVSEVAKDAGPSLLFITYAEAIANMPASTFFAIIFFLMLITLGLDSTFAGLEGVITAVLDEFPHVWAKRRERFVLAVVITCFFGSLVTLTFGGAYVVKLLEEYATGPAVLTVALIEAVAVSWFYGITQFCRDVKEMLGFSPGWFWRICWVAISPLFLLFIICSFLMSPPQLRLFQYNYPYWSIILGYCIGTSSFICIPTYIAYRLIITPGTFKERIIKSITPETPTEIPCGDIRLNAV
Chain of SERT (P31645 whole entry): as above

A word on the AUC(0-t): it is exposure summed from dosing to a finite time, without extrapolation to infinity. Low readings indicate low exposure, high ones high exposure. Broadly, the Cmax is the peak of the concentration-time curve. Usually Tmax stands for the time from dosing to the highest level. Regarding `CN1CCN2c3c(cccc31)[C@@H]1CN(CCCC(=O)c3ccc(F)cc3)CC[C@@H]12`, in data set [1] (female rats), the AUC(0-t) was found to be 0.071 µg·h/mL, the concentration peaked (Cmax) at 0.0118 µg/mL, the Tmax stood at 1 h and the half-life is 23.4 h. In data set [1] (male rats), the area under the curve AUC(0-t) was 0.0545 µg·h/mL, the Cmax is 0.00485 µg/mL, the Tmax turned out to be 0.75 h and the half-life is 12.1 h. For the same compound, the “Course of plasma concentration over time” value in data set [1] is recorded as “maintained over 8 hours”.
Take `O=C(CCCN1CC[C@H]2[C@@H](C1)c1cccc3c1N2CCN3)c1ccc(F)cc1`: in data set [1] (female rats), the area under the curve AUC(0-t) turned out to be 0.0897 µg·h/mL, the peak level (Cmax) was 0.0128 µg/mL and the Tmax was determined as 5.33 h. Also, in data set [1] (male rats), the AUC(0-t) was 0.0374 µg·h/mL, the maximum concentration (Cmax) was found to be 0.00584 µg/mL, the Tmax stood at 1 h and the half-life is 17.8 h. In addition, the “Course of plasma concentration over time” value in data set [1] is listed as “maintained over 8 hours”.
A word on the Ki: it is the dissociation constant of the complex between target and ligand, obtained from inhibition or displacement. High values mean weaker binding, low ones tighter binding. Turning to `CN1CCN2c3c(cccc31)[C@@H]1CN(CCCC(O)c3ccc(F)cc3)CC[C@@H]12` (stereo partly shown) [Example 1], the inhibition constant (Ki) on SERT was 0.071 µM; in data set [2], 1.5 µM. Besides, the “Effect on step down latency” value in the data set on dopamine receptors is “significantly and dose dependently increased step down latency”. In addition, the area under the curve AUC(0-t) in data set [1] (female rats) was 0.767 µg·h/mL; in data set [1] (male rats), 0.421 µg·h/mL. For the same compound, the Cmax in data set [1] (female rats) is 0.144 µg/mL; in data set [1] (male rats), 0.0916 µg/mL. In addition, the time of peak concentration (Tmax) in data set [1] (female rats) was 3.33 h; in data set [1] (male rats), 0.83 h. The values for the half-life in data set [1] (female rats) and in data set [1] (male rats) were 11.6 h and 5.83 h, respectively. Besides, the “Course of plasma concentration over time” value in data set [1] was “generally decreases over time”. Besides, in data set [2] (imipramine as reference, compared with the corresponding keto compound of Formula Q), the SERT inhibitory activity entry is listed as “potent SERT inhibitory activity”. Moreover, the Concentration in data set [3] (5 min) was found to be 8.43 µM; in data set [3] (10 min), 12.02 µM; in data set [3] (15 min) it was 13.42 µM; in data set [3] (30 min), 19.21 µM; in data set [3] (60 min), 24.66 µM; in data set [3] (90 min) it was 33.31 µM. Moreover, the “IC50 for reducing DOI-induced head twitches” value in the data set with 5-HT2 receptor (0.5 hr before DOI, twitches counted during 6 min) worked out at 0.31 mg/kg. The “Effect on DOI-induced head twitches” value in the data set with 5-HT2 receptor (before DOI, FIG. 1) is “significantly and dose dependently reduced head twitches”.
With `CCCC(=O)OC(CCCN1CC[C@H]2[C@@H](C1)c1cccc3c1N2CCN3C)c1ccc(F)cc1` (stereo partly shown) [Example 4], the Concentration worked out at 52.84 µM in data set [3] (0 min); 24.92 µM in data set [3] (5 min); 18.51 µM in data set [3] (10 min); 9.21 µM in data set [3] (15 min); 7.06 µM in data set [3] (30 min); 2.74 µM in data set [3] (60 min). The Concentration in data set [3] (90 min) worked out at 1.75 µM. In data set [3] (rat whole blood, during 90 minutes), the “Cleavage of the ester in blood” value is given as “steadily cleaved back to the compound of Example 1”.
